According to patent publication US11795460B2, “Compositions and methods for TTR gene editing and treating ATTR amyloidosis” (Intellia Therapeutics, Inc., priority 2017, dated 2023):
Strand notation (5' to 3'): a small letter for the sugar, then the base; units joined by * are phosphorothioate-linked, units joined directly phosphodiester-linked; [ ] holds rarer units or linkages, { } end groups; capitals alone tell only the bases. m = 2'-O-methyl; r = 2'-OH (RNA)

Legend:
TTR [1] = test: TTR editing in HepG2 cells transfected with Spy Cas9 mRNA and dgRNAs (Table 6); format: cell-based, human; conditions: HepG2 cells co-transfected with Spy Cas9 mRNA (SEQ ID NO:2) and dgRNAs
Method in brief: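 Percent editing is the share of sequencing reads at the TTR target locus that carry insertions, deletions or substitutions, measured by Illumina amplicon sequencing aligned to hg38. Samples came from HepG2 cells lipofected first with 100 ng Cas9 mRNA and then with dual-guide RNA (25 nM crRNA/tracer), collected 24–72 h later.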

TTR [2] = test: TTR editing in primary human hepatocytes electroporated with Spy Cas9 protein loaded with dgRNAs (Table 7); format: cell-based; conditions: dgRNA electroporated with Spy Cas9 protein (RNP)
Method in brief: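 Editing efficiency is the fraction of NGS reads carrying insertions, deletions or substitutions at the TTR target, measured on MiSeq amplicons from DNA harvested 24, 48 or 72 h post-delivery. Cas9–dgRNA ribonucleoprotein was nucleofected (P3 buffer, EX-147) into primary human or cyno hepatocytes.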

TTR [3] = test: TTR editing in primary human hepatocytes transfected with Spy Cas9 protein (RNP) loaded with dgRNAs (Table 8); format: cell-based; conditions: dgRNA transfected with Spy Cas9 protein (RNP)
Method in brief: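 Primary human hepatocytes were lipofected (RNAiMAX) with RNP of Spy Cas9 (10 nM) plus pre-annealed crRNA (10 nM) and trRNA (10 nM) and harvested 24, 48 or 72 h later. Target-site amplicons were sequenced on Illumina MiSeq and aligned to hg38; percent editing = reads with indels or substitutions over total reads.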

TTR [4] = test: TTR editing in primary human hepatocytes transfected with Spy Cas9 mRNA and dgRNAs (Table 9); format: cell-based; conditions: dgRNA co-transfected with Spy Cas9 mRNA (SEQ ID NO:2)
Method in brief: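 PHH sequentially lipofected with Spy Cas9 mRNA (100 ng), then crRNA plus tracrRNA (25 nM each) dual-guide lipoplex. Cells harvested 24, 48 or 72 h post-transfection; TTR target amplicons sequenced on Illumina MiSeq, editing given as percent reads with indels or substitutions over total reads.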

off-target genomic sites = test: Off-target oligo insertion based assay in HEK293_Cas9 cells, dgRNAs and sgRNAs (Tables 23, 24); format: cell-based, human; conditions: Table 23; TTR dgRNAs in HekCas9 cells, oligo insertion based assay
Experimental: An oligo insertion based assay (See, e.g., Tsai et al., Nature Biotechnology 33, 187-197; 2015) was used to determine potential off-target genomic sites cleaved by Cas9 targeting TTR. Forty-five dgRNAs from Table 1 (and two control guides with known off-target profiles) were screened in the HEK293 Cas9 cells. The human embryonic kidney adenocarcinoma cell line HEK293 constitutively expressing Spy Cas9 (“HEK293_Cas9”) was cultured in DMEM media supplemented with 10% fetal bovine serum and 500 μg/ml G418. Cells were plated at a density of 30,000 cells/well in a 96-well plate 24 hours prior to transfection. Cells were transfected with Lipofectamine RNAiMAX (ThermoFisher, Cat. 13778150) per the manufacturer's protocol. Cells were transfected with a lipoplex containing individual crRNA (15 nM), trRNA (15 nM), and donor oligo with (10 nM) Lipofectamine RNAiMAX (0.3 μL/well) and OptiMem. Cells were lysed 24 hours post transfection and genomic DNA was extracting using Zymo's Quick gDNA 96 Extraction kit (catalog #D3012) following the manufacturer's recommended protocol. The gDNA was quantified using the Qubit High Sensitivity dsDNA kit (Life Technologies). Libraries were prepared per the previously described method in Tsai et al, 2015 with minor modifications. Sequencing was performed on Illumina's MiSeq and HiSeq 2500. The assay identified potential off-target sites for some of the crRNAs which are plotted in FIG. 2.
Additionally, a subset of the guides was assessed for off-target potential as modified sgRNAs in the Hek_Cas9 cells via the oligo based insertion method described above. The off-target results were plotted in FIG. 4.

TTR [5] = test: TTR editing in primary cyno hepatocytes electroporated with Spy Cas9 protein and sgRNAs (Tables 14, 15); format: cell-based, cynomolgus monkey; conditions: Table 15; primary cyno hepatocytes electroporated with Spy Cas9 protein (RNP) and cyno specific sgRNAs
Experimental: (§1) Primary liver hepatocytes. Primary human liver hepatocytes (PHH) and primary cynomolgus liver hepatocytes (PCH) (Gibco) were cultured per the manufacturer's protocol (Invitrogen, protocol 11.28.2012). In brief, the cells were thawed and resuspended in hepatocyte thawing medium with supplements (Gibco, Cat. CM7000) followed by centrifugation at 100 g for 10 minutes for human and 80 g for 4 minutes for cyno. The supernatant was discarded and the pelleted cells resuspended in hepatocyte plating medium plus supplement pack (Invitrogen, Cat. A1217601 and CM3000). Cells were counted and plated on Bio-coat collagen I coated 96-well plates (ThermoFisher, Cat. 877272) at a density of 33,000 cells/well for human or 60,000 cells/well for cyno (or 65,000 cells/well when assaying effects on TTR protein, described further below). Plated cells were allowed to settle and adhere for 6 or 24 hours in a tissue culture incubator at 37° C. and 5% CO2 atmosphere. After incubation cells were checked for monolayer formation and media was replaced with hepatocyte culture medium with serum-free supplement pack (Invitrogen, Cat. A1217601 and CM4000).
[…] formation was performed prior to electroporation or transfection of Spy Cas9 protein loaded with guide RNAs (RNPs) onto cells. For dual guide (dgRNAs), individual crRNA and trRNA was pre-annealed by mixing equivalent amounts of reagent and incubating at 95° C. for 2 min and cooling to room temperature. Single guide (sgRNAs) were boiled at 95° C. for 2 min and cooling to room temperature. The boiled dgRNA or sgRNA was incubated with Spy Cas9 protein in Optimem for 10 minutes at room temperature to form a ribonucleoprotein (RNP) complex.
For RNP electroporation into primary human and cyno hepatocytes, the cells are thawed and resuspended in Lonza electroporation Primary Cell P3 buffer at a concentration of 2500 cells per μL for human hepatocytes and 3500 cells per μL for cyno hepatocytes. A volume of 20 μL of resuspended cells and 5 μL of RNP are mixed together per guide. 20 μL of the mixture is placed into a Lonza electroporation plate. The cells were electroporated using the Lonza nucleofector with the preset protocol EX-147. Post electroporation, the cells are transferred into a Biocoat plate containing pre-warmed maintenance media and placed in a tissue culture incubator at 37° C. and 5% CO2.
Transfected cells were harvested post-transfection at 24, 48, or 72 hours. The genomic DNA was extracted from each well of a 96-well plate using 50 μL/well BuccalAmp DNA Extraction solution (Epicentre, Cat. QE09050) per manufacturer's protocol. All DNA samples were subjected to PCR and subsequent NGS analyses, as described herein.
(§2) To quantitatively determine the efficiency of editing at the target location in the genome, sequencing was utilized to identify the presence of insertions and deletions introduced by gene editing.
(§3) Primers were designed around the target site within the gene of interest (e.g. TTR), and the genomic area of interest was amplified.
(§4) Additional PCR was performed per the manufacturer's protocols (Illumina) to add chemistry for sequencing. The amplicons were sequenced on an Illumina MiSeq instrument. The reads were aligned to a reference genome (e.g., the human reference genome (hg38), the cynomologus reference genome (mf5), the rat reference genome (rn6), or the mouse reference genome (mm10)) after eliminating those having low quality scores. The resulting files containing the reads were mapped to the reference genome (BAM files), where reads that overlapped the target region of interest were selected and the number of wild type reads versus the number of reads which contain an insertion, substitution, or deletion was calculated.
The editing percentage (e.g., the “editing efficiency” or “percent editing” or “indel frequency”) is defined as the total number of sequence reads with insertions/deletions (“indels”) or substitutions over the total number of sequence reads, including wild type. […]

TTR [6] = test: TTR editing in primary cyno hepatocytes treated with LNP formulated Spy Cas9 mRNA (SEQ ID NO: 2) and sgRNAs (Tables 17, 18); format: cell-based, cynomolgus monkey; conditions: LNP formulated Spy Cas9 mRNA (SEQ ID NO: 2) and cyno matched sgRNAs, 72 hours post treatment
Experimental: as §1
In general, the lipid nanoparticle components were dissolved in 100% ethanol with the lipid component of various molar ratios. The RNA cargos were dissolved in 25 mM citrate, 100 mM NaCl, pH 5.0, resulting in a concentration of RNA cargo of approximately 0.45 mg/mL. The LNPs were formulated with a lipid amine to RNA phosphate (N:P) molar ratio of about 4.5 or about 6, with the ratio of mRNA to gRNA at 1:1 by weight.
The LNPs were formed by microfluidic mixing of the lipid and RNA solutions using a Precision Nanosystems NanoAssemblr™ Benchtop Instrument, according to the manufacturer's protocol. A 2:1 ratio of aqueous to organic solvent was maintained during mixing using differential flow rates. After mixing, the LNPs were collected, diluted in water (approximately 1:1 v/v), held for 1 hour at room temperature, and further diluted with water (approximately 1:1 v/v) before final buffer exchange. The final buffer exchange into 50 mM Tris, 45 mM NaCl, 5% (w/v) sucrose, pH 7.5 (TSS) was completed with PD-10 desalting columns (GE). If required, formulations were concentrated by centrifugation with Amicon 100 kDa centrifugal filters (Millipore). The resulting mixture was then filtered using a 0.2 μm sterile filter. The final LNP was stored at −80° C. until further use.
as §2, §3, §4
The editing percentage (e.g., the “editing efficiency” or “percent editing” or “indel frequency”) is defined as the total number of sequence reads with insertions/deletions (“indels”) or substitutions over the total number of sequence reads, including wild type.
Lipid nanoparticle formulations of modified sgRNAs targeting human TTR and the cyno matched sgRNA sequences were tested on primary human hepatocytes and primary cyno hepatocytes in a dose response curve. Primary human and cyno hepatocytes were plated as described in Example 1. […]

Molecule	Avg % Deletion (TTR [1]) [%]	Avg % Edit (TTR [1]) [%]	Avg % Insert (TTR [1]) [%]	Avg % Deletion (TTR [2]) [%]	Avg % Edit (TTR [2]) [%]	Avg % Insert (TTR [2]) [%]	Avg % Deletion (TTR [3]) [%]	Avg % Edit (TTR [3]) [%]	Avg % Insert (TTR [3]) [%]	Avg % Deletion (TTR [4]) [%]	Avg % Edit (TTR [4]) [%]	Avg % Insert (TTR [4]) [%]	# Sites (off-target integration sites detected) (off-target genomic sites)	Avg % Deletion (TTR [5]) [%]	Avg % Edit (TTR [5]) [%]	Avg % Insert (TTR [5]) [%]	12.5 ng mRNA, 3.9 nM sgRNA % Edit (TTR [6]) [%]
UCCACUCAUUCUUGGCAGGA (tested as dual guide RNA, chemistry not given here) [CR005298]	21.36	42.65	21.29	17.57	39.90	22.37	10.95	32.07	21.12	11.60	15.70	4.13	0				
UCACAGAAACACUCACCGUA (tested as dual guide RNA, chemistry not given here) [CR005300]	11.15	64.34	53.20	4.10	57.47	53.47	3.61	57.23	53.62	3.97	31.53	27.60	0				
G000509: TTR Cyno specific sgRNA modified sequence, SEQ ID No. 121; guide sequence of CR005369 (nucleic acid) guide: mA*mA*mA*rGrUrUrCrUrArGrArUrGrCrCrGrUrCrCrGrGrUrUrUrUrArGrAmGmCmUmAmGmAmAmAmUmAmGmCrArArGrUrUrArArArArUrArArGrGrCrUrArGrUrCrCrGrUrUrArUrCrAmAmCmUmUmGmAmAmAmAmAmGmUmGmGmCmAmCmCmGmAmGmUmCmGmGmUmGmCmU*mU*mU*mU														49.73	93.03	43.60	74.47
